Patent US9200047B2, “SSX-2 peptides presented by HLA class II molecules” (Ludwig Institute for Cancer Research, Ltd., priority 2003, dated 2015)

Key:
Type in all cases: cell-based, human
[1] = system: SSX-2 specific CD4^+ T cells (clone 2C3); experiment: IFN-γ secretion (ELISA) by SSX-2 specific CD4+ T cell clone in response to extended or truncated peptides; conditions: for peptide recognition relative to SEQ ID NO:1 (IFN-γ secretion): clone 2C3, EBV LAU 149 as APC, serial peptide dilutions, ELISA after 24 hrs
Description: FIG. 2 depicts determination of the minimal sequence optimally recognized by SSX-2 specific CD4^+ T cells. Synthetic peptides extended or truncated at the SSX-213-34 N- or C-terminus were used to determine the minimal length of the epitope recognized by SSX-2 specific CD4^+ T cells. Serial dilutions of each peptide were incubated with EBV LAU 149 and SSX-2 specific CD4^+ T cells. IFN-γ secretion was determined by ELISA in the culture supernatant after 24 hrs of culture. The peptides tested were: […] (SSX-213-34; SEQ ID NO:1); […] (SSX-213-36; SEQ ID NO:2); […] (SSX-213-32; SEQ ID NO:3); VGAQIPEKIQKAFDDIAK (SSX-213-30; SEQ ID NO:4); IPEKIQKAFDDIAKYFSK (SSX-217-34; SEQ ID NO:5); EKIQKAFDDIAKYFSK (SSX-219-34; SEQ ID NO:6); IQKAFDDIAKYFSK (SSX-221-34; SEQ ID NO:7) and […] (SSX-261-82; SEQ ID NO:30).
(§1) For intracellular cytokine secretion detection T cells were incubated with APC at a 1:1 T cells:APC ratio during 4-6 h in the absence or in the presence of peptides at the indicated dose. One hour after the beginning of the incubation Brefeldin A (20 μg/ml, Sigma Chemical Co., Steinheim, Germany) was added to inhibit cytokine secretion. At the end of the incubation period cells were stained with anti-CD4 mAb for 20 min at 4° C. and fixed. Cells were then permeabilized using saponine (Sigma, 0.1% in PBS 10% FCS) stained by incubation with mAb against IFN-γ or IL-2 (BD, Pharmingen) and analyzed by flow cytometry. Data analysis was performed using Cell Quest software. For detection of cytokine secretion in the culture supernatant T cells (10,000) were incubated with stimulating cells (15,000/well) in 96-well round-bottom plates in 200 μl/well of IMDM containing 10% human serum and 20 U/ml hrIL2. After 24 h incubation at 37° C., culture supernatants were collected and the content of IFN-γ determined by ELISA (BioSource Europe, Fleurus, Belgium). IFN-γ ELISPOT assay was performed as described previously (Ayyoub M. et al, 2002, J Immunol 32:2292-2299) using nitrocellulose-lined 96-well microplates (MAHA S45: Millipore, Bedford, Mass.) and an IFN-γ ELISPOT kit (DIACLONE, Besancon, France). Stimulator cells (5×10^4/well) were added together with the indicated number of T cells and peptide (2 μM) where indicated. Spots were counted using a stereomicroscope with a magnification of ×15.
To more precisely define the SSX-2-derived peptide optimally recognized by specific CD4^+ T cells from patient 672, we analyzed the relative capacity of peptide SEQ ID to NO:1 extended or truncated variants to stimulate IFN-γ secretion by specific clonal T cells (clone 2C3). […] Similar results were obtained using another CD4^+ T cell clone (not shown).

CD4^+ T cells = experiment: Intracellular IFN-γ / IL-2 staining of peptide-stimulated CD4+ T cell cultures from melanoma patients; conditions: culture from patient 672; not shown
Description: FIGS. 1A and 1B show detection of SSX-2 specific CD4^+ T cells in peptide stimulated cultures. The presence of specific CD4^+ T cells in the culture from patient 672 was assessed by intracellular staining with anti-IFN-γ (FIG. 1A, left panels) or anti-IL-2 antibodies (FIG. 1A, right panels) after stimulation with autologous PBMC alone (upper panels) or with the peptide submixture P1-3 (containing SSX-2 peptides 1-22, 13-34, 25-46). Numbers in upper right quadrants are percent of cytokine producing cells among CD4^+ T cells.
In vitro sensitization of CD4^+ T cells was carried out as described previously for CD8^+ T cells. […]
(§2) For intracellular cytokine secretion detection T cells were incubated with APC at a 1:1 T cells:APC ratio during 4-6 h in the absence or in the presence of peptides at the indicated dose. […] Cells were then permeabilized using saponine (Sigma, 0.1% in PBS 10% FCS) stained by incubation with mAb against IFN-γ or IL-2 (BD, Pharmingen) and analyzed by flow cytometry. […] After 24 h incubation at 37° C., culture supernatants were collected and the content of IFN-γ determined by ELISA (BioSource Europe, Fleurus, Belgium). […] Spots were counted using a stereomicroscope with a magnification of ×15. […]

[2] = system: SSX-2 specific CD4^+ T cells; experiment: Presentation of peptide SSX-2 13-34 by APC bearing different HLA-DP alleles (intracellular IFN-γ secretion); conditions: healthy donors (Caucasian); not shown
Description: FIG. 3A: Intracellular IFN-γ secretion by SSX-2 specific CD4+ T cells (clone 3C8) upon stimulation with peptide SSX-213-34 was assessed both in the absence and in the presence of anti HLA-DR, -DP or -DQ antibodies. FIG. 3B: The ability of APC bearing different HLA-DP alleles to present peptide SSX-2 13-34 to specific CD4^+ T cells was assessed by intracellular IFN-γ secretion.
Molecular typing of HLA-DP molecules, construction of plasmids and transient transfection. […]
as §2

[3] = system: SSX-2 specific CD4^+ T cells; experiment: Presentation of exogenously added peptide by melanoma cell lines to specific CD4+ T cell clones (ELISPOT); conditions: two lines, Me 260 and T465A
Description: FIGS. 4A and 4B show the lack of tumor recognition by SSX-2 13-34 specific CD4^+ T cells. FIG. 4A: Recognition of Me 260 cells by CD4+ T cells was tested by ELISPOT in the absence or in the presence of exogeneously added peptide SSX-213-34. Where indicated, cells were treated with IFN-γ during 48 hr. FIG. 4B: Recognition of T465A was assessed as in […] as well as upon transfection with an SSX-2 encoding plasmid. The CD8+ T cell clone B3.4 specific for peptide SSX-2 41-49 was used as an internal control.
For intracellular cytokine secretion detection T cells were incubated with APC at a 1:1 T cells:APC ratio during 4-6 h in the absence or in the presence of peptides at the indicated dose. One hour after the beginning of the incubation Brefeldin A (20 μg/ml, Sigma Chemical Co., Steinheim, Germany) was added to inhibit cytokine secretion. At the end of the incubation period cells were stained with anti-CD4 mAb for 20 min at 4° C. and fixed. Cells were then permeabilized using saponine (Sigma, 0.1% in PBS 10% FCS) stained by incubation with mAb against IFN-γ or IL-2 (BD, Pharmingen) and analyzed by flow cytometry. Data analysis was performed using Cell Quest software. […] After 24 h incubation at 37° C., culture supernatants were collected and the content of IFN-γ determined by ELISA (BioSource Europe, Fleurus, Belgium). […] Spots were counted using a stereomicroscope with a magnification of ×15. […]

[4] = system: SSX-2 13-34 specific CD4^+ T cell clone 3C8; experiment: Processing of soluble recombinant protein by professional APC and presentation to specific CD4+ T cells (ELISPOT)
Description: FIG. 5A: The ability of EBV LAU 149 to process the SSX-2 protein and present the relevant epitope to specific CD4+ T cells was assessed by ELISPOT after 12 hrs incubation with soluble recombinant SSX-2 protein followed by washing. NY-ESO-1 protein was used as an internal control. FIGS. 5B and 5C: Processing and presentation of the SSX-2 CD4^+ T cell epitope by LAU 672 autologous monocyte-derived DC was assessed as in FIG. 5A.
as §1
We then assessed the ability of professional APC to process the SSX-2 antigen and present the SSX-2 13-34 epitope to specific CD4^+ T cells.

[5] = system: clonal CD8^+ T cells (clone B3.4); experiment: Processing of exogenous SSX-2 protein by professional APC and recognition by SSX-2 41-49 specific CD8+ T cells; conditions: EBV and DC as APC

IQKAFDDIAKYFSK (listed as Homo sapiens) [SEQ ID NO:7]
reduction of peptide activity ([1]; relative to SEQ ID NO:1, clone 2C3, IFN-γ ELISA): 10 fold

EKIQKAFDDIAKYFSK (listed as Homo sapiens) [SEQ ID NO:6]
peptide recognition relative to SEQ ID NO:1 (IFN-γ secretion) [1]: did not significantly affect recognition
epitope mapping: minimal peptide among analyzed peptides ([1]; clone 2C3, similar results with another CD4+ T cell clone): minimal peptide optimally recognized

IPEKIQKAFDDIAKYFSK (listed as Homo sapiens) [SEQ ID NO:5]
peptide recognition relative to SEQ ID NO:1 (IFN-γ secretion) [1]: did not significantly affect recognition

VGAQIPEKIQKAFDDIAKYFSK (listed as Homo sapiens) [SEQ ID NO:1]
reactivity of the culture to single peptides in the submixture P1-3 (CD4^+ T cells): active peptide
PBMC from healthy donors able to present the epitope to CD4^+ T cells [2]: 3 out of 14
presentation of peptide by melanoma cell lines to specific T cell clones [3]: efficiently presented

B1: SSX-2 protein: soluble recombinant SSX-2 protein given to APC (protein, UniProt Q16385 1-188, looked up)
Protein SSX2: MNGDDAFARRPTVGAQIPEKIQKAFDDIAKYFSKEEWEKMKASEKIFYVYMKRKYEAMTKLGFKATLPPFMCNKRAEDFQGNDLDNDPNRGNQVERPQMTFGRLQGISPKIMPKKPAEEGNDSEEVPEASGPQNDGKELCPPGKPTTSEKIHERSGPKRGEHAWTHRLRERKQLVIYEEISDPEEDDE
processing of protein and presentation of the epitope / stimulation of clone 3C8 ([4]; EBV LAU 149 as APC, 12 hrs incubation with soluble recombinant protein): efficiently process
stimulation of clone 3C8 ([4]; EBV cells unable to present the peptide as APC): not significantly stimulated
presentation of the epitope to specific CD4+ T cells ([4]; LAU 672 autologous dendritic cells (DC) as APC): Efficient presentation
recognition of the CD8^+ T cell epitope SSX-2 41-49 after processing of exogenous protein [5]: did not result in recognition
